Source: patent US20160355483A1, “COMPOUND BINDING TO PPARG BUT NOT ACTING AS PROMOTER AND PHARMACEUTICAL COMPOSITION FOR TREATING PPARG-RELATED DISEASES CONTAINING SAME AS ACTIVE INGREDIENT” (Hyundai Pharm Co., Ltd., priority 2014, published 2016)
“Also recorded” adds a separate entry of the source.

Columns and labels:
[1] = biological target: T1, CYP1A2 (Homo sapiens, UniProt P05177); experiment: CYP (cytochrome P450)-suppressing effect, BD GENTEST kit; type: in vitro ADME
T1 construct: purchased BD GENTEST 459100
T1 sequence (P05177 1-516): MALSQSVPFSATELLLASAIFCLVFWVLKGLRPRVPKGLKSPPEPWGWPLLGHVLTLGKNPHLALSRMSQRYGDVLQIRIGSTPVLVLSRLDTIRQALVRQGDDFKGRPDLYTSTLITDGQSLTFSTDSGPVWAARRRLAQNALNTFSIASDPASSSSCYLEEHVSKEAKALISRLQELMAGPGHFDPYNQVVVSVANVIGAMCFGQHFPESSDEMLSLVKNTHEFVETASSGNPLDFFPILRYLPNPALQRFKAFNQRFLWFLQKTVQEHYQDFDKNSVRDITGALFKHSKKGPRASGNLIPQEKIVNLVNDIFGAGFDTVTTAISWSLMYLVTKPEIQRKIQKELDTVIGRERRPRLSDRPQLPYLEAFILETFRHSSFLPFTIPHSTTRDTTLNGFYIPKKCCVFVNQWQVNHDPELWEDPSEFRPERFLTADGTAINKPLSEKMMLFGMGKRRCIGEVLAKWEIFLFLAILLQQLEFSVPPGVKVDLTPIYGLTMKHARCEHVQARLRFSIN
Description: (§1) To evaluate the CYP (cytochrome P450)-suppressing activity of the compounds prepared in the examples of the invention, the following experiment was performed.
(§2) The analysis of CYP1A2, 2C19, and 3A4 suppressing activity was performed by using a BD GENTEST (459100, 459400, and 459500) kit, and the analysis of CYP 2C9- and 2D6-suppressing activity was performed by using an Invitrogen (P2861 and P2862) kit.
(§3) When the BD GENTEST kit was used, the compounds of the present invention were diluted in acetonitrile at the final concentration of 50×. The NADPH-Cofactor mix was prepared by diluting the Cofactor, G6PDH, and control protein provided by the kit in DW according to the instructed concentration. 4 μL of the compound of the example (50×) was mixed with 96 μL of NADPH-Cofactor mix in a 96-well plate, followed by pre-incubation in a 37° C. incubator for 10 minutes.
(§4) The enzyme/substrate mixture was diluted in the buffer (0.5 M potassium phosphate, pH 7.4) provided by the kit according to the instructed concentration. Each CYP450 enzyme substrate was diluted in DW at a desired concentration respectively according to the corresponding types of CYP450. 100 μL of the enzyme/substrate mixture was loaded in the plate when the pre-incubation had been completed, followed by reaction in a 37° C. incubator for 15 minutes (1A2) and 30 minutes (3A4 and 2C19). Upon completion of the reaction, the mixture was transferred to a white plate, and the fluorescent wavelength was measured with a microplate reader (1A2, 2C19 excitation 410 nm, emission 460 nm; 3A4, excitation 409 nm, emission 530 nm).
(§5) The test results were calculated by the following formula:
(§6) (1−(fluorescence value of the test material/fluorescence value of the vehicle))×100%.

[2] = biological target: T2, CYP 2C19 (Homo sapiens, UniProt P33261); experiment: as above; type: in vitro ADME
T2 construct: purchased BD GENTEST 459400
T2 sequence (P33261 whole entry): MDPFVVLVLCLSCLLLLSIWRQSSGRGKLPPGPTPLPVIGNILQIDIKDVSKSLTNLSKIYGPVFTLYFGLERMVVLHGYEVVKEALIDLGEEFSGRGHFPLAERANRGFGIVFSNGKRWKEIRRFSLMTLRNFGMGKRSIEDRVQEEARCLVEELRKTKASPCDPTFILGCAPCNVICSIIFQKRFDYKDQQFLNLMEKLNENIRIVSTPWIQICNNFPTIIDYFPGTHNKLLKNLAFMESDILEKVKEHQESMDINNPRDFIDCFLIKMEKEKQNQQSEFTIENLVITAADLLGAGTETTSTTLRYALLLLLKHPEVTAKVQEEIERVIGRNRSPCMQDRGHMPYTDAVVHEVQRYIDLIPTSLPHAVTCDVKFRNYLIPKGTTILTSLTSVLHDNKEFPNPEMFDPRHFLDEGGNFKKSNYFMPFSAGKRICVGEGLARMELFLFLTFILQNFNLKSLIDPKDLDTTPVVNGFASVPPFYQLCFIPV
Description: as §1, §2, §3, §4, §5, §6

[3] = biological target: T3, CYP 3A4 (Homo sapiens, UniProt P08684); experiment: as above; type: in vitro ADME
T3 construct: purchased BD GENTEST 459500
T3 sequence (P08684 whole entry): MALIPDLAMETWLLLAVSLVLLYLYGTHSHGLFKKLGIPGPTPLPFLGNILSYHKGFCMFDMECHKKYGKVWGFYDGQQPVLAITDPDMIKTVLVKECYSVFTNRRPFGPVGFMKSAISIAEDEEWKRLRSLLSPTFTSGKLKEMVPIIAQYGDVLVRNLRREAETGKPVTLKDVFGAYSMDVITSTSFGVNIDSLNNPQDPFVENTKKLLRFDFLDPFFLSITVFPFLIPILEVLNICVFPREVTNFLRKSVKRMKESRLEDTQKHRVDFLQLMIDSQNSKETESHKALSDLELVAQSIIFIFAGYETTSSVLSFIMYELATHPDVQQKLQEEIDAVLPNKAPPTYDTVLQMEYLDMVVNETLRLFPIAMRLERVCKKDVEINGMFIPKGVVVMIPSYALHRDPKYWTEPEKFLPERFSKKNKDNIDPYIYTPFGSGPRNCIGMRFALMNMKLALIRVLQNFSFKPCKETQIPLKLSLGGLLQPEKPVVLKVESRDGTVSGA
Description: as §1, §2, §3, §4, §5, §6

[4] = biological target: T4, CYP 2D6 (Homo sapiens, UniProt P10635); experiment: CYP (cytochrome P450)-suppressing effect, Invitrogen Vivid kit; type: in vitro ADME
T4 construct: purchased Invitrogen P2862
T4 sequence (P10635 whole entry): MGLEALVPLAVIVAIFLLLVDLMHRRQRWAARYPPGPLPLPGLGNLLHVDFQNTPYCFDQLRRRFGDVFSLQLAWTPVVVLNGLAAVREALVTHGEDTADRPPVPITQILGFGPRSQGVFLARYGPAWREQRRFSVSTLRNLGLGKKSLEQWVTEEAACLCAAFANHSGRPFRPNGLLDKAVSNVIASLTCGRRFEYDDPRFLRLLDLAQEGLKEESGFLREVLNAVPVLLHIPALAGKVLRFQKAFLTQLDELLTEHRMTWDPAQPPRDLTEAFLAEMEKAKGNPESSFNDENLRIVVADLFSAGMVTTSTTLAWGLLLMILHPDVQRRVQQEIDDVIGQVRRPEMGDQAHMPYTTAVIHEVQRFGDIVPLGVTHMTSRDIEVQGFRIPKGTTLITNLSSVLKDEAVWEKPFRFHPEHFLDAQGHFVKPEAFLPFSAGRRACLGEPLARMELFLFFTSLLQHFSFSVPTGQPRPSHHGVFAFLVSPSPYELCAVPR
Description: as §1, §2
(§7) When the Invitrogen kit was used, the compounds of the present invention were diluted in Vivid CYP450 reaction buffer (1×) at the final concentration of 2.5×. The P450 BACULOSOMES sample and Regeneration system (100×) were diluted in Vivid CYP450 reaction buffer (1×) at different proper concentrations. 80 μL of the compound of the invention (2.5×) and […] of the diluted P450 BACULOSOMES sample mixture were mixed in a U-bottom 96-well plate, followed by pre-incubation for 10 minutes. Vivid CYP450 Substrate and NADP+ (100×) were diluted in Vivid CYP450 reaction buffer (1×) at a desired concentration, respectively, according to their corresponding types of CYP450 and substrates. 20 μL of Substrate-NADP+ mix was loaded in the plate when the pre-incubation had been completed, followed by reaction for 1 hour. Upon completion of the reaction, the reaction mixture was transferred in a white plate and fluorescent wavelength was measured with a microplate reader (2C9 excitation 415 nm, emission 460 nm, 2D6 excitation 400 nm, emission 502 nm).
as §5, §6

[5] = biological target: T5, CYP 2C9 (Homo sapiens, UniProt P11712); experiment: as above; type: in vitro ADME
T5 construct: purchased Invitrogen P2861
T5 sequence (P11712 whole entry): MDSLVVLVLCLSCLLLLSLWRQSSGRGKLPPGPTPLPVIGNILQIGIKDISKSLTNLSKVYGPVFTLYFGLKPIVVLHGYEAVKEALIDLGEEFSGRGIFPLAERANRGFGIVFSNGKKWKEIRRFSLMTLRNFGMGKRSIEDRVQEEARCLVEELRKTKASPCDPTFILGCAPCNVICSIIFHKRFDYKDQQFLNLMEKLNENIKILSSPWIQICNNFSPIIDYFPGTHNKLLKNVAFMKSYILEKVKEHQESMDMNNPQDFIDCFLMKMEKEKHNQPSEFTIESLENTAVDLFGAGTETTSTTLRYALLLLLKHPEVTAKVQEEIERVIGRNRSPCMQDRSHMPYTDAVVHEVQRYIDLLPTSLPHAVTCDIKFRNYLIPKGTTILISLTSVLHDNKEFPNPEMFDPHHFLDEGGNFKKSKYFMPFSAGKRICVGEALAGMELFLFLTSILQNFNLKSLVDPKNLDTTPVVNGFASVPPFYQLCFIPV
Description: as §1, §2, §7, §5, §6

[6] = system: CYP isozymes 1A2, 2C9, 2C19, and 2D6; experiment: CYP suppression compared with comparative examples (Table 3); type: in vitro ADME; conditions: result in words
Description: as §1, §2, §7, §3, §4, §5, §6

[7] = biological target: T6, PPARG (peroxisome proliferator activated receptor-gamma), GST-PPARG-LBD (Homo sapiens, UniProt P37231); experiment: LanthaScreen TR-FRET PPARG Competitive Binding Assay; parameters: key: “+” indicates the degree of the binding activity, and as the number of “+” increases, the binding activity is stronger; ++: “+” indicates the degree of the binding activity, and as the number of “+” increases, the binding activity is stronger; +++: “+” indicates the degree of the binding activity, and as the number of “+” increases, the binding activity is stronger; ++++: “+” indicates the degree of the binding activity, and as the number of “+” increases, the binding activity is stronger; conditions: degree of binding activity
T6 construct: 15 μL of 5 nM GST-PPARG-LBD and 5 nM Tb-GST-antibody were added; purchased Invitrogen PV4894
T6 sequence (P37231 238-503 limits assumed): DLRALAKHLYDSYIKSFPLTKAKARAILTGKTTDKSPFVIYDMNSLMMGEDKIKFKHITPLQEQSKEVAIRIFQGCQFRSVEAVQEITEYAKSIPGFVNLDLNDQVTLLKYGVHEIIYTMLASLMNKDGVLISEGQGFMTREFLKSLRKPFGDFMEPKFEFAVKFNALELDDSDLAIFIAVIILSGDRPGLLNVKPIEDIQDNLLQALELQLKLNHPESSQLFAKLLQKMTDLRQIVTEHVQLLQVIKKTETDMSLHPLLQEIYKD
How it was run: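 GST-tagged human PPARG LBD in a TR-FRET competitive binding kit, 1 h at room temperature. Read-out is the 518/488 nm emission ratio (340 nm excitation); activity = 100% − compound ratio/vehicle ratio, compared with rosiglitazone.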

| Structure (SMILES) | CYP(10 μL, %) 1A2 [1] [%] | CYP(10 μL, %) 2C19 [2] [%] | CYP(10 μL, %) 3A4 [3] [%] | CYP(10 μL, %) 2D6 [4] [%] | CYP(10 μL, %) 2C9 [5] [%] | suppression of CYP isozymes 1A2, 2C9, 2C19, and 2D6 compared with SR1664 and SR1824 [6] | Binding assay (1 μLM) [7] |
| --- | --- | --- | --- | --- | --- | --- | --- |
| Cc1c(C)n(Cc2ccc(-c3ccccc3C(=O)O)cc2)c2ccc(C(=O)NC(C)c3ccc(Br)cc3)cc12 (stereo not drawn) [2 (SR1824), SR1824, reference compound] | 64.12 | 32.45 | 71.88 | 68.34 | 6.43 |  |  |
| C[C@H](NC(=O)c1ccc2c(c1)CCCN2Cc1ccc(-c2ccccc2C(=O)O)cc1)c1ccc(C#N)cc1 [Example 14, (S)-4′-((6-((1-(4-cyanophenyl)ethyl)carbamoyl)-3,4-dihydroquinoline-1(2H)-yl)methyl)-[1,1′-biphenyl]-2-caboxylic acid] | 97.99 | 79.96 | 71.24 | 86.13 | 64.28 | less than the compounds of the comparative examples; also recorded: less strongly than the compounds of the Comparative Examples | ++ |
| C[C@H](NC(=O)c1ccc2c(c1)CCCN2Cc1ccc(-c2ccccc2C(N)=O)cc1)c1ccc(F)cc1 [Example 36, (S)-1-((2′-carbamoyl-[1,1′-biphenyl]-4-yl)methyl)-N-(1-(4-fluorophenyl)ethyl)-1,2,3,4-tetrahydroquinoline-6-carboxamide] | 98.84 | 52.68 | 58.18 | 75.73 | 51.03 | less than the compounds of the comparative examples; also recorded: less strongly than the compounds of the Comparative Examples | +++ |
| C[C@H](NC(=O)c1ccc2c(c1)CCCN2Cc1ccc(-c2ccccc2C(N)=O)cc1)c1ccc2ccccc2c1 [Example 44, (S)-1-((2′-carbamoyl-[1,1′-biphenyl]-4-yl)methyl)-N-(1-(naphthalene-2-yl)ethyl)-1,2,3,4-tetrahydroquinoline-6-carboxamide] | 94.56 | 59.55 | 70.42 | 97.07 | 56.40 | less than the compounds of the comparative examples; also recorded: less strongly than the compounds of the Comparative Examples | +++ |
| Cc1ccc([C@H](C)NC(=O)c2ccc3c(c2)CCCN3Cc2ccccc2-c2ccc(C(N)=O)cc2)cc1F [Example 158, (S)-1-((4′-carbamoyl-[1,1′-biphenyl]-2-yl)methyl)-N-(1-(3-fluoro-4-methylphenyl)ethyl)-1,2,3,4-tetrahydroquinoline-6-carboxamide] |  |  |  |  |  |  | + |
| C[C@H](NC(=O)c1ccc2c(c1)CCCN2Cc1ccccc1-c1ccc(C(N)=O)cc1)c1ccc([N+](=O)[O-])cc1 [Example 159, (S)-1-((4′-carbamoyl-[1,1′-biphenyl]-2-yl)methyl)-N-(1-(4-nitrophenyl)ethyl)-1,2,3,4-tetrahydroquinoline-6-carboxamide] |  |  |  |  |  |  | + |
| C[C@H](NC(=O)c1ccc2c(c1)CCCN2Cc1ccccc1-c1ccc(C(N)=O)cc1)c1ccc2ccccc2c1 [Example 160, (S)-1-((4′-carbamoyl-[1,1′-biphenyl]-2-yl)methyl)-N-(1-(naphthalene-2-yl)ethyl)-1,2,3,4-tetrahydroquinoline-6-carboxamide] |  |  |  |  |  |  | ++ |
| C[C@H](NC(=O)c1ccc2c(c1)CCCN2Cc1ccccc1-c1ccc(C(N)=O)cc1)c1ccc(C#N)cc1 [Example 161, (S)-1-((4′-carbamoyl-[1,1′-biphenyl]-2-yl)methyl)-N-(1-(4-cyanophenyl)ethyl)-1,2,3,4-tetrahydroquinoline-6-carboxamide] |  |  |  |  |  |  | ++ |
| C[C@H](NC(=O)c1ccc2c(c1)OCCN2Cc1ccc(-c2ccccc2C(=O)O)c(F)c1)c1ccccc1 [Example 162, (S)-2′-fluoro-4′-((7-((1-phenylethyl)carbamoyl)-2H-benzo[b][1,4]oxazine-4(3H)-yl)methyl)-[1,1′-biphenyl]-2-carboxylic acid] |  |  |  |  |  |  | +++ |
| C[C@H](NC(=O)c1ccc2c(c1)OCCN2Cc1ccc(-c2ccccc2C(=O)O)c(F)c1)c1ccc2ccccc2c1 [Example 163, (S)-2′-fluoro-4′-((7-((1-(naphthalene-2-yl)ethyl)carbamoyl)-2H-benzo[b][1,4]oxazine-4(3H)-yl)methyl)-[1,1′-biphenyl]-2-carboxylic acid] |  |  |  |  |  |  | +++ |
| Cc1ccc([C@H](C)NC(=O)c2ccc3c(c2)OCCN3Cc2ccc(-c3ccccc3C(=O)O)c(F)c2)cc1F [Example 164, (S)-2′-fluoro-4′-((7-(((3-fluoro-4-methylphenyl)ethyl)carbamoyl)-2H-benzo[b][1,4]oxazine-4(3)-yl)methyl)-[1,1′-biphenyl]-2-carboxylic acid] |  |  |  |  |  |  | +++ |
